Measured values from patent US20020137154A1, “Methods for improving cell growth and alcohol production during fermentation” (priority 2000, published 2002).

Tested on: Klebsiella oxytoca P2
Experiment: Batch fermentation of Klebsiella oxytoca P2 in 1% CSL medium and xylose with acetaldehyde: ethanol production and cell growth
Assay type: cell-based
Details: for Ethanol Production Maximum / Ethanol Production Maximum % Control / Ethanol yield / Initial Growth (OD @ 24 h) % Control / Initial Growth (OD @ 24 h) OD / Maximum Cell Density % Control / Maximum Cell Density OD / Maximum Cell Density Time / Time to completion / Volumetric Productivity % Control (based on Avg) / Volumetric Productivity % Control (based on Max) / Volumetric Productivity Average / Volumetric Productivity Maximum: K. oxytoca P2, 1% CSL+xylose
Protocol: Two types of media were tested: 1% CSL and Luria broth (LB). Each contained 97 g of either xylose or glucose per liter. Luria Broth consists of, per liter: 10 g Difco® Tryptone, 5 g Difco® Yeast Extract and 5 g NaCl. The 1% CSL medium consists of Corn Steep Liquor (1% w/v) plus mineral salts (mineral salts per liter: 1 g of KH2PO4. 0.5 g of K2HPO4, 3.1 g of (NH4)2SO4, 0.4 g of MgCl2·6H2), and 20 mg FeCl3·6H2O).
Luria Broth was prepared by autoclaving a 2× nutrient stock containing, per liter: 20 g Difco® Tryptone, 10 g Difo® Yeast Extract, and 10 g NaCl. Sugars (xylose or glucose) were autoclaved separately. A 1% CSL medium was prepared as follows: Commercial Corn Steep Liquor (CSL; 50% dry weight/50% water) was diluted with tap water to make a 20X stock containing 100 g dry weight of Corn Steep Liquor/L and was adjusted to pH 7.2 with NaOH (50%). After sterilization by autoclaving, the 20X CSL stock was clarified by centrifugation at 5000×g for 10 minutes. Magnesium was added as a 100× stock solution (40 g/L MgCl2·6H2O). Iron was added as a 1000× stock solution made by dissolving 20 g FeCl3·6H2O in 175 mL of HCl and adjusting to 1 L with sterile water. Nitrogen, sulfur and phosphorus were added using a 20× stock solution containing the following (per liter): 20 g of KH2PO4, 10 g of K2HPO4 and 62 g of (NH4)2SO4. Stock solutions containing minerals were sterilized separately by autoclaving. Final media was prepared by adding 750 mL of water to 1 L bottle containing 100 g of xylose or glucose. This solution was autoclaved, and stock solutions were added to provide a 1× concentration, and the final volume adjusted to 1 L. This broth was further diluted by the addition of supplements (acetaldehyde stock or distilled water) during fermentation with a resulting sugar content of 97 g/L.
Inocula were grown in same media used for fermentation and were prepared as follows. Three colonies from a fresh plate were used to inoculate seed cultures: 250-mL flask containing 100 mL medium. These cultures were grown with agitation (120 rpm) for 12-16 hours at 35° C. to a final OD550nm of approximately 2.0-2.5. Cells were harvested by centrifugation at 5000×g for 5 minutes, and resuspended in fresh media to an OD550nm of 0.1. The resulting suspension was distributed into 500-mL beakers containing 345 ml each of fermentation medium. Acetaldehyde was added as indicated. Batch fermentations (35° C., 100 rpm) were maintained at pH 6.5 by the automatic addition of 2N KOH. Cell mass, ethanol, and base addition (2N KOH) were recorded during 96 hours of incubation.
Cell mass was estimated by measuring OD550nm using Baush & Lomb® Spectronic 70 spectrophotometer. […] Ethanol was measured by gas chromatography using a Varian® 3400 CX gas chromatograph with 1-propanol as an internal standard.
This example describes the effect of the addition of acetaldehyde to 1% CSL and xylose medium, which has been inoculated with ethanologenic, cells, i.e., Klebsiella oxytoca P2.
Maximum ethanol production is shown in grams/liter (g/L). The ethanol yield is shown in grams of ethanol/grams of added sugar. Maximum volumetric productivity is shown in grams of ethanol/(liter)(hour). The average productivity is calculated form the start of fermentation to the completion of fermentation in grams ethanol/(liter)(hour).
Acetaldehyde was added to the fermentation medium at five different concentrations and time points. Where only one acetaldehyde value is provided, this amount of acetaldehyde was added at the start of fermentation only (i.e., 0.25 g/L acetaldehyde or 0.5 g/L). Where two or three additions are indicated, the first volume was added at the start of fermentation and additional doses of the nutrient compound were added after 8 hours of fermentation or at 8-hour intervals.

[1] = 2 × 0.25 g/L (start, after 8 hours)
[2] = 3 × 0.25 g/L (start, then 8-hour intervals)
[3] = K. oxytoca P2, CSL and xylose, 0.5 g/L at the start

CC=O [Acetaldehyde, acetaldehyde]
Ethanol Production Maximum (0.25 g/L at start): 25.43 g/L | Ethanol Production Maximum % Control (0.25 g/L at start): 107.35% | Ethanol yield (0.25 g/L at start): 0.262 grams of ethanol/grams of added sugar | Initial Growth (OD @ 24 h) % Control (0.25 g/L at start): 93.90% | Initial Growth (OD @ 24 h) OD (0.25 g/L at start): 3.54 OD | Maximum Cell Density % Control (0.25 g/L at start): 111.96% | Maximum Cell Density OD (0.25 g/L at start): 5.68 OD | Maximum Cell Density Time (0.25 g/L at start): 72.00 h | Time to completion (0.25 g/L at start): >96 h | Volumetric Productivity % Control (based on Avg) (0.25 g/L at start): 107.35% | Volumetric Productivity % Control (based on Max) (0.25 g/L at start): 135.46% | Volumetric Productivity Average (0.25 g/L at start): 0.265 grams ethanol/(liter)(hour) | Volumetric Productivity Maximum (0.25 g/L at start): 0.47 grams of ethanol/(liter)(hour) | Ethanol Production Maximum (0.5 g/L at start): 26.53 g/L | Ethanol Production Maximum % Control (0.5 g/L at start): 111.98% | Ethanol yield (0.5 g/L at start): 0.273 grams of ethanol/grams of added sugar | Initial Growth (OD @ 24 h) % Control (0.5 g/L at start): 69.39% | Initial Growth (OD @ 24 h) OD (0.5 g/L at start): 2.61 OD | Maximum Cell Density % Control (0.5 g/L at start): 116.26% | Maximum Cell Density OD (0.5 g/L at start): 5.89 OD | Maximum Cell Density Time (0.5 g/L at start): 96.00 h | Time to completion (0.5 g/L at start): >96 h | Volumetric Productivity % Control (based on Avg) (0.5 g/L at start): 111.98% | Volumetric Productivity % Control (based on Max) (0.5 g/L at start): 147.11% | Volumetric Productivity Average (0.5 g/L at start): 0.276 grams ethanol/(liter)(hour) | Volumetric Productivity Maximum (0.5 g/L at start): 0.51 grams of ethanol/(liter)(hour) | Ethanol Production Maximum [1]: 25.56 g/L | Ethanol Production Maximum % Control [1]: 107.88% | Ethanol yield [1]: 0.263 grams of ethanol/grams of added sugar | Initial Growth (OD @ 24 h) % Control [1]: 88.59% | Initial Growth (OD @ 24 h) OD [1]: 3.34 OD | Maximum Cell Density % Control [1]: 104.50% | Maximum Cell Density OD [1]: 5.30 OD | Maximum Cell Density Time [1]: 96.00 h | Time to completion [1]: >96 h | Volumetric Productivity % Control (based on Avg) [1]: 107.88% | Volumetric Productivity % Control (based on Max) [1]: 126.68% | Volumetric Productivity Average [1]: 0.266 grams ethanol/(liter)(hour) | Volumetric Productivity Maximum [1]: 0.44 grams of ethanol/(liter)(hour) | Ethanol Production Maximum [2]: 26.14 g/L | Ethanol Production Maximum % Control [2]: 110.32% | Ethanol yield [2]: 0.269 grams of ethanol/grams of added sugar | Initial Growth (OD @ 24 h) % Control [2]: 95.66% | Initial Growth (OD @ 24 h) OD [2]: 3.60 OD | Maximum Cell Density % Control [2]: 106.51% | Maximum Cell Density OD [2]: 5.40 OD | Maximum Cell Density Time [2]: 72.00 h | Time to completion [2]: >96 h | Volumetric Productivity % Control (based on Avg) [2]: 110.32% | Volumetric Productivity % Control (based on Max) [2]: 135.55% | Volumetric Productivity Average [2]: 0.272 grams ethanol/(liter)(hour) | Volumetric Productivity Maximum [2]: 0.47 grams of ethanol/(liter)(hour) | ethanol production as compared to the control [3]: highest amount of ethanol production | initial growth and maximum cell density as compared to the control [3]: increased initial growth and maximum cell density
